Drawing on patent publication US10385069B2, “Imidazo[2,1-B]thiazole and 5,6-dihydroimidazo[2,1-B]thiazole derivatives useful as S100-inhibitors” (Active Biotech AB, priority 2015, dated 2019), this text covers IC50 for 26 compounds.

The target of the assay is T1, interaction between biotinylated human S100A9 and human RAGE-Fc (Homo sapiens, UniProt P06702).
T1 construct: made in house; host or cells: E. coli
T1 sequence (P06702 1-114): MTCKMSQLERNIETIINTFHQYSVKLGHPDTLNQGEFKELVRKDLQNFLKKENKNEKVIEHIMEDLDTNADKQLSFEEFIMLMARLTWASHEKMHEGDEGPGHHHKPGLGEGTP
The assay is described as follows: AlphaScreen inhibition assay, biot-hS100A9:hRAGE-Fc. The assay is classed as binding. The note with it: biot-hS100A9 pre-incubated with compound 1 h, assay buffer with CaCl2 and ZnCl2. An outline of the steps: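 Biotinylated human S100A9, preincubated with compound, binds human RAGE-Fc on protein A Acceptor beads in HBS-P with CaCl2 and ZnCl2; streptavidin Donor beads added, AlphaScreen signal read. Protein levels set by cross-titration; beads 20 μg/mL final. Percent inhibition versus DMSO control; IC50 from varied compound concentrations.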
As for `COc1ccc(-c2c(C(=O)O)nc3sc4c(n23)CC(C)(C)CC4(C)C)cc1` [Example 254, 3-(4-Methoxyphenyl)-9,9,11,11-tetramethyl-7-thia-2,5-diazatricyclo[6.4.0.0^2,6]dodeca-1(8),3,5-triene-4-carboxylic acid], the IC50 came out at 1150 nM.
`CC(=O)NCc1c(C(=O)O)nc2sc3c(n12)CCC(C(C)(C)C)C3` (centres unmarked) [Example 255, 10-tert-Butyl-3-(acetamidomethyl)-7-thia-2,5-diazatricyclo[6.4.0.0^2,6]dodeca-1(8),3,5-triene-4-carboxylic acid]: the IC50 amounted to 1150 nM.
The same measure for `CN1CCN(c2c(C(=O)O)nc3sc4c(n23)CC(C)(C)CC4(C)C)CC1` [Example 288, 9,9,11,11-Tetramethyl-3-(4-methylpiperazin-1-yl)-7-thia-2,5-diazatricyclo[6.4.0.0^2,6]dodeca-1(8),3,5-triene-4-carboxylic acid]: 1060 nM.
To `O=C(O)c1cn2c(n1)sc1cc(Cl)ccc12` [Example 8, 10-Chloro-7-thia-2,5-diazatricyclo[6.4.0.0^2,6]dodeca-1(8),3,5,9,11-pentaene-4-carboxylic acid] belongs 2700 nM.
The same measure for `CC1(C)Cc2c(sc3nc(C(=O)O)c(I)n23)C(C)(C)C1` [Example 199, 3-Iodo-9,9,11,11-tetramethyl-7-thia-2,5-diazatricyclo[6.4.0.0^2,6]dodeca-1(8),3,5-triene-4-carboxylic acid]: 530 nM.
Take `COc1ccccc1-c1c(C(=O)O)nc2sc3c(n12)CC(C)(C)CC3(C)C` [Example 247, 3-(2-Methoxyphenyl)-9,9,11,11-tetramethyl-7-thia-2,5-diazatricyclo[6.4.0.0^2,6]dodeca-1(8),3,5-triene-4-carboxylic acid]: the IC50 came out at 1530 nM.
In the case of `O=C(O)[C@H]1CN2C(=N1)Sc1c2ccc(F)c1Cl` (single isomer, unassigned) [Example 237], the IC50 is 680 nM.
Regarding `CC1(C)CCc2sc3nc(C(=O)NS(C)(=O)=O)cn3c2C1` [Example 50, N-Methanesulfonyl-11,11-dimethyl-7-thia-2,5-diazatricyclo[6.4.0.0^2,6]dodeca-1(8),3,5-triene-4-carboxamide], the IC50 worked out at 1040 nM.
The same measure for `CC(C)(C)C1CCc2c(sc3nc(C(=O)NS(=O)(=O)CCCN4CCOCC4)cn23)C1` (centres unmarked) [Example 51, 10-tert-Butyl-N-[3-(morpholin-4-yl)propanesulfonyl]-7-thia-2,5-diazatricyclo[6.4.0.0^2,6]dodeca-1(8),3,5-triene-4-carboxamide]: 490 nM.
Regarding `O=C(O)c1cn2c(n1)sc1cc(C(F)(F)F)ccc12` [Example 14, 10-(Trifluoromethyl)-7-thia-2,5-diazatricyclo[6.4.0.0^2,6]dodeca-1(8),3,5,9,11-pentaene-4-carboxylic acid], the IC50 amounted to 2140 nM.
To `CCS(=O)(=O)NC(=O)c1cn2c(n1)sc1c(Cl)c(Cl)ccc12` [Example 24, 9,10-Dichloro-N-(ethanesulfonyl)-7-thia-2,5-diazatricyclo[6.4.0.0^2,6]dodeca-1(8),3,5,9,11-pentaene-4-carboxamide] belongs 340 nM; to `O=C(O)c1cn2c3c(sc2n1)C(O)CCC3` (centres unmarked) [Example 39, 9-Hydroxy-7-thia-2,5-diazatricyclo[6.4.0.0^2,6]dodeca-1(8),3,5-triene-4-carboxylic acid], 2980 nM.
The same measure for `O=C(O)c1cn2c(n1)sc1c(Cl)c(F)ccc12` [Example 2, 9-Chloro-10-fluoro-7-thia-2,5-diazatricyclo[6.4.0.0^2,6]dodeca-1(8),3,5,9,11-pentaene-4-carboxylic acid]: 250 nM; for `O=C(O)c1cn2c(n1)sc1c(Cl)ccc(Cl)c12` [Example 197, 9,12-Dichloro-7-thia-2,5-diazatricyclo[6.4.0.0^2,6]dodeca-1(8),3,5,9,11-pentaene-4-carboxylic acid]: 1440 nM.
To `CC1(C)CCc2sc3nc(C(=O)NS(=O)(=O)CC(F)(F)F)cn3c2C1` [Example 57, 11,11-Dimethyl-N-(2,2,2-trifluoroethanesulfonyl)-7-thia-2,5-diazatricyclo[6.4.0.0^2,6]dodeca-1(8),3,5-triene-4-carboxamide] belongs 740 nM; to `O=C(O)c1cn2c(n1)sc1cc(OC(F)(F)F)ccc12` [Example 4, 10-(Trifluoromethoxy)-7-thia-2,5-diazatricyclo[6.4.0.0^2,6]dodeca-1(8),3,5,9,11-pentaene-4-carboxylic acid], 1160 nM.
With `O=C(O)c1cn2c3c(sc2n1)CCCCC3` [Example 37, 7-Thia-2,5-diazatricyclo[6.5.0.0^2,6]trideca-1(8),3,5-triene-4-carboxylic acid], the IC50 came out at 1050 nM.
For the compound `CS(=O)(=O)NC(=O)Cc1cn2c(n1)sc1c(Cl)c(Cl)ccc12` [Example 30, 2-{9,10-Dichloro-7-thia-2,5-diazatricyclo[6.4.0.0^2,6]dodeca-1(8),3,5,9,11-pentaen-4-yl}-N-methanesulfonylacetamide], the IC50 stood at 2910 nM.
To `O=C(O)c1cn2c(n1)sc1c(Cl)cccc12` [Example 5, 9-Chloro-7-thia-2,5-diazatricyclo[6.4.0.0^2,6]dodeca-1(8),3,5,9,11-pentaene-4-carboxylic acid] belongs 1300 nM.
For `COCCS(=O)(=O)NC(=O)c1cn2c(n1)sc1c(Cl)c(Cl)ccc12` [Example 23, 9,10-Dichloro-N-(2-methoxyethanesulfonyl)-7-thia-2,5-diazatricyclo[6.4.0.0^2,6]dodeca-1(8),3,5,9,11-pentaene-4-carboxamide], the IC50 was 320 nM.
In the case of `O=C(NS(=O)(=O)C1CC1)c1cn2c(n1)sc1c(Cl)c(Cl)ccc12` [Example 22, 9,10-Dichloro-N-(cyclopropanesulfonyl)-7-thia-2,5-diazatricyclo[6.4.0.0^2,6]dodeca-1(8),3,5,9,11-pentaene-4-carboxamide], the concentration for half-maximal inhibition (IC50) is 280 nM.
To `O=C(O)c1cn2c(n1)sc1c(OC(F)(F)F)cccc12` [Example 198, 9-(Trifluoromethoxy)-7-thia-2,5-diazatricyclo[6.4.0.0^2,6]dodeca-1(8),3,5,9,11-pentaene-4-carboxylic acid] belongs 1560 nM; to `CC1(C(=O)NS(C)(=O)=O)CN2C(=N1)Sc1c2ccc(F)c1Cl` (centres unmarked) [Example 294, 9-Chloro-10-fluoro-N-methanesulfonyl-4-methyl-7-thia-2,5-diazatricyclo[6.4.0.0^2,6]dodeca-1(8),5,9,11-tetraene-4-carboxamide], 780 nM.
To `O=C(O)c1cn2c(n1)sc1cc(F)ccc12` [Example 10, 10-Fluoro-7-thia-2,5-diazatricyclo[6.4.0.0^2,6]dodeca-1(8),3,5,9,11-pentaene-4-carboxylic acid] belongs 2970 nM; to `CON(C)Cc1c(C(=O)O)nc2sc3c(n12)CCC(C(C)(C)C)C3` (centres unmarked) [Example 257, 10-tert-Butyl-3-{[methoxy(methyl)amino]methyl}-7-thia-2,5-diazatricyclo[6.4.0.0^2,6]dodeca-1(8),3,5-triene-4-carboxylic acid], 890 nM.
Consider `O=C(O)C1CN2C(=N1)Sc1c2ccc(Cl)c1Cl` (centres unmarked) [Example 185, 9,10-Dichloro-7-thia-2,5-diazatricyclo[6.4.0.0^2,6]dodeca-1(8),5,9,11-tetraene-4-carboxylic acid], for which the IC50 amounted to 450 nM.
